The subject of series [1] is SH-SY5Y. In words: Neuroprotective activity against TBHP-induced oxidative damage in human SH-SY5Y cells assessed as increase in cell viability at 10 uM pretreated for 24 hrs followed by TBHP stimulation measured after 4 hrs by MTT assay relative to control. The format is functional, cell-based. On the technique in general: Tetrazolium assays rely on reduction of a dye to a coloured formazan, in cell work by metabolically active cells.

Series [2] deals with SH-SY5Y. Briefly: Cytotoxicity against human SH-SY5Y cells assessed as reduction in cell viability incubated for 24 hrs by MTT assay relative to control. The format is cell-based.
Series [3] in a line: Electrochemical behavior of the compound assessed as redox potential corrected toward saturated Ag/AgCl reference electrode by cyclic voltammetry.
The nature of series [4]: Cytotoxicity against human HepG2 cells assessed as cell metabolic activity at 10 uM incubated for 48 hrs by resazurin assay relative to control. Type of series: ADME, cell-based. The settings on record: read-out: Activity. For orientation: The colour change of resazurin is a common sign of viable cells or microbes.
A short description of series [5]: Cytotoxicity against human SH-SY5Y cells assessed as cell metabolic activity at 50 uM incubated for 24 hrs by MTT assay relative to control. The format is ADME, cell-based. As to conditions: read-out: Activity.
Series [6] in a line: Electrochemical behavior of the compound assessed as redox potential corrected toward saturated Ag/AgCl reference electrode by differential pulse voltammetry.
Series [7] in a line: Antioxidant activity assessed as ABTS radical scavenging activity measured after 15 mins by UV-Visible spectrophotometric based assay. The format is functional.
The next series relates to HepG2. In words: Cytotoxicity against human HepG2 cells assessed as reduction in cell viability incubated for 48 hrs by resazurin assay relative to control. Type of series: cell-based. As to conditions: hepg2, 48 h.
For series [8], the system named is SH-SY5Y. Briefly: Neuroprotective activity against TBHP-induced oxidative damage in human SH-SY5Y cells assessed as increase in cell viability at 50 uM pretreated for 24 hrs followed by TBHP stimulation measured after 4 hrs by MTT assay relative to control. The format is functional.
Series [9] is described as follows: Metal chelating activity assessed as compound-Fe2+ complex formation at 100 uM incubated for 10 mins by ferrozine spectrophotometric assay.
In series [10] the test system is SH-SY5Y. Briefly: Neuroprotective activity against 6-OHDA-induced toxicity in human SH-SY5Y cells assessed as reduction in cell damage at 10 to 50 uM pretreated for 24 hrs followed by 6-OHDA challenge and measured after 24 hrs by MTT assay relative to control. Type of series: functional.
Series [11] relates to SH-SY5Y. Briefly: Cytotoxicity against human SH-SY5Y cells assessed as reduction in cell viability at 10 uM incubated for 24 hrs by MTT assay relative to control. Type of series: cell-based.
Series [12] is described as follows: Cytotoxicity against human HepG2 cells assessed as cell metabolic activity at 50 uM incubated for 48 hrs by resazurin assay relative to control. Type of series: ADME, cell-based. The settings on record: read-out: Activity.
Series [13] is described as follows: Antioxidant activity assessed as DPPH radical scavenging activity measured after 45 mins by UV-Visible spectrophotometric based assay. The format is functional. In general terms: Loss of DPPH colour is used to gauge radical scavenging.
Series [14] can be described thus: Cytotoxicity against human SH-SY5Y cells assessed as cell metabolic activity at 10 uM incubated for 24 hrs by MTT assay relative to control. The format is ADME, cell-based. The settings on record: read-out: Activity.
Series [15] relates to SH-SY5Y. Briefly: Induction of ROS generation in human SH-SY5Y cells at 50 uM incubated for 24 hrs by DCFH-DA probe based fluorescence assay relative to control. Type of series: functional.
In series [16] the test system is SH-SY5Y. Briefly: Neuroprotective activity against H2O2-induced oxidative damage in human SH-SY5Y cells assessed as reduction in cell damage at 10 uM pretreated for 24 hrs followed by H2O2 challenge measured after 30 mins by MTT assay relative to control. The format is functional.
Series [17] deals with SH-SY5Y. In words: Neuroprotective activity against 6-OHDA-induced toxicity in human SH-SY5Y cells assessed as reduction in cell damage at 10 uM pretreated for 24 hrs followed by 6-OHDA challenge and measured after 24 hrs by MTT assay relative to control. Type of series: functional. Further details: scale not given: the % may be the effect or the level left.

Active and inactive are the calls of the source. No cut-off for these calls is given here.

Turning to `CS(=O)(=O)[O-].O=C(/C=C/c1ccc(O)c(O)c1)NCCCCCCCCCC[P+](c1ccccc1)(c1ccccc1)c1ccccc1`, the result in the series with SH-SY5Y [1], in the series on SH-SY5Y [8] and in the series on SH-SY5Y [10] was inactive. For the same molecule, the Activity result in the series with SH-SY5Y [2] is “Dose-dependent effect”; in series [3] it was 174 mV; in series [6], 174 mV; with HepG2, “Dose-dependent effect”; in [9] it was more than 80%; with SH-SY5Y [11] it was less than 45%. In the series on SH-SY5Y [15], this molecule returned an Activity of 132.5%. Also, the viability at 48 h, 10 µM in series [4] was found to be 9.19%. The viability at 24 h, 50 µM in [5] stood at 15.9%. Further, the IC50 stood at 23.5 µM in [7] and 25.9 µM in [13]. Besides, in [12], the viability at 48 h, 50 µM came to 8.24%. In addition, in series [14], the viability at 24 h, 10 µM came to 104%.
As for `O=C(NCCCCCCCCCC[P+](c1ccccc1)(c1ccccc1)c1ccccc1)c1ccc(O)c(O)c1.[Br-]`, the outcome in the series on SH-SY5Y [1], with SH-SY5Y [8], in the series with SH-SY5Y [10] and in the series on SH-SY5Y [16] was inactive. The Activity entry in the series on SH-SY5Y [2] is “Dose-dependent effect”; in series [3], 210 mV; in series [6], 210 mV; in the series with HepG2, “Dose-dependent effect”; in [9], more than 80%; in the series with SH-SY5Y [11], less than 45%. The molecule also had an Activity in the series on SH-SY5Y [15] of 68.4%. Further, the viability at 48 h, 10 µM in series [4] came to 44.6%. Besides, the viability at 24 h, 50 µM in series [5] came out at 31.1%. The IC50 in series [7] was 19.4 µM; in [13], 31 µM. The viability at 48 h, 50 µM in [12] turned out to be 2.4%. Further, the viability at 24 h, 10 µM in series [14] was determined as 97.8%.
Consider `CS(=O)(=O)[O-].O=C(CCc1ccc(O)c(O)c1)NCCCCCCCCCC[P+](c1ccccc1)(c1ccccc1)c1ccccc1`, for which the outcome with SH-SY5Y [1] and in the series with SH-SY5Y [8] was inactive. Also, the Activity entry is “Dose-dependent effect” in the series with SH-SY5Y [2]; 122 mV in series [3]; 122 mV in series [6]; “Dose-dependent effect” in the series with HepG2; more than 80% in [9]; less than 45% with SH-SY5Y [11]. Further, the Activity in the series on SH-SY5Y [15] came to 96.2%. Further, the viability at 48 h, 10 µM in [4] is 41.8%. In addition, in series [5], the viability at 24 h, 50 µM was 72.5%. The results for the IC50 in [7] and in series [13] were 30.1 µM and 59.1 µM, respectively. Further, the viability at 48 h, 50 µM in series [12] was 8.22%. In addition, in series [14], the viability at 24 h, 10 µM was found to be 96%.
For the molecule `CS(=O)(=O)[O-].O=C(/C=C/c1cc(O)c(O)c(O)c1)NCCCCCC[P+](c1ccccc1)(c1ccccc1)c1ccccc1`, the outcome in the series with SH-SY5Y [1] and with SH-SY5Y [8] was inactive. Also, the Activity in series [3] is 34 mV; in series [6] it was 709 mV; in series [9], more than 80%; with SH-SY5Y [17], 19.8%. Also, the viability at 48 h, 10 µM in series [4] was 105%. In addition, the viability at 24 h, 50 µM in series [5] stood at 94%. Moreover, the results for the IC50 in [7] and in [13] were 12.2 µM and 19 µM, respectively. The viability at 48 h, 50 µM in series [12] was 94.7%. In addition, the viability at 24 h, 10 µM in series [14] was 104%. The result with SH-SY5Y [15] was Active.
`CS(=O)(=O)[O-].O=C(Cc1ccc(O)c(O)c1)NCCCCCCCCCC[P+](c1ccccc1)(c1ccccc1)c1ccccc1`: the outcome with SH-SY5Y [1] and in the series on SH-SY5Y [8] was inactive. The Activity result in the series with SH-SY5Y [2] is “Dose-dependent effect”; in [3], 122 mV; in series [6] it was 122 mV; in the series with HepG2, “Dose-dependent effect”; in series [9], more than 80%; in the series with SH-SY5Y [15] it was 103.4%. Besides, the viability at 48 h, 10 µM in series [4] is 85.2%. For the same molecule, the viability at 24 h, 50 µM in series [5] came out at 85.7%. Further, the IC50 amounted to 28.1 µM in [7] and 56.4 µM in series [13]. Also, in series [12], the viability at 48 h, 50 µM turned out to be 10.7%. For the same molecule, the viability at 24 h, 10 µM in [14] was found to be 94.5%.

As usually defined, the IC50 is the concentration needed to halve the response being measured.

Values taken from ChEMBL document CHEMBL4390649, “Fine-tuning the neuroprotective and blood-brain barrier permeability profile of multi-target agents designed to prevent progressive mitochondrial dysfunction” (Eur J Med Chem, 2019).
